# According to paper PMC6620293, “Anti-cancer activity of the novel 2-hydroxydiarylamide derivatives IMD-0354 and KRT1853 through suppression of cancer cell invasion, proliferation, and survival mediated by TMPRSS4” (Scientific Reports, 2019):
# Target: dipeptidyl peptidase 4 (DPP4) (Homo sapiens, UniProt P27487)
# Experiment: protease activity profiling assay (BPS Bioscience service), […]~[…] compound in […] DMSO
# Format: biochemical
# Sequence of dipeptidyl peptidase 4 (DPP4) (P27487 39-766): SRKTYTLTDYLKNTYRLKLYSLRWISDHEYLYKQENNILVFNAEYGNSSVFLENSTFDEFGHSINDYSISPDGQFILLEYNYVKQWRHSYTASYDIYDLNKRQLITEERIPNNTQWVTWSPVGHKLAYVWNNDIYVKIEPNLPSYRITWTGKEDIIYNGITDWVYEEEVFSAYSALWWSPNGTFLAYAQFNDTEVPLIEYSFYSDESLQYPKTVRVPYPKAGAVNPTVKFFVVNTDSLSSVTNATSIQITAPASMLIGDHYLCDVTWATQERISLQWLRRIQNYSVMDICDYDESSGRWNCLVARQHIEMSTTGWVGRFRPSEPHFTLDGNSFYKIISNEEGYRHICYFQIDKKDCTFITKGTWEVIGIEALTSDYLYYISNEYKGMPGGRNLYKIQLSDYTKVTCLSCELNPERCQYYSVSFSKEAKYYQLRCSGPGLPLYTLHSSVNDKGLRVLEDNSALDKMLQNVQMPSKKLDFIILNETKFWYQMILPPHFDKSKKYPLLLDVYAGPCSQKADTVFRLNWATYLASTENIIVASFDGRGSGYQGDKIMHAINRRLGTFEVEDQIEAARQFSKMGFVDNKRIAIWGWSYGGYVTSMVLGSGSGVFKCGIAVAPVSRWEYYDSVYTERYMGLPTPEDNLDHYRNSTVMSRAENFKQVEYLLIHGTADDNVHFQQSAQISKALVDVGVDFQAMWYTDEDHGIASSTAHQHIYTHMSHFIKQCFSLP
smiles,measurement,value
"O=C(Nc1cc(C(F)(F)F)cc(C(F)(F)F)c1)c1cc(Cl)ccc1O [IMD-0354, N-(3,5-Bis-trifluoromethylphenyl)-5-chloro-2-hydroxybenzamide]",IC50,9.2 µM
